The values that follow come from paper PMC8009421, “Characterization of a broadly specific cadaverine N-hydroxylase involved in desferrioxamine B biosynthesis in Streptomyces sviceus” (PLoS ONE, 2021).

The target in series [1] is T1, SsDesB (without N-terminal hexahistidine tag) (Streptomyces sviceus, UniProt B5HNG5).
T1 construct: gene SSEG_08523; T2-V425, N-terminal His6 cut off with TEV protease (ENLYFQ/T); codon-optimized gene, E. coli Rosetta2(DE3); homotetramer
As to the kind of experiment: X-ray crystal structure, […] Å. The note with it: holoenzyme; FAD-binding site; also in 6XBB.

Series [2] has as its target T1, SsDesB (without N-terminal hexahistidine tag). Description: Csaky iodine oxidation product formation assay. The note with it: substrate inhibition constant (Haldane), 50 μM FAD, pH 8.0, 25°C. The format is biochemical. From the text: (§1) Csaky iodine oxidation product formation assay on SsDesB (without N-terminal hexahistidine tag)
The target is the same in series [3]. Description: X-ray crystal structure, […] Å. The conditions noted are these: ternary complex with FAD; NADPH-binding site.
Series [4] deals with T2, SsDesB with N-terminal hexahistidine tag (Streptomyces sviceus, UniProt B5HNG5).
T2 construct: gene SSEG_08523
Description: NADH oxidation at […] nm. Format: biochemical. The conditions noted are these: substrate inhibition constant (Haldane); 0.7 mM NADH, 50 μM FAD, 25°C.

Series [5] deals with NC(=O)C1=CN([C@@H]2O[C@H](COP(=O)(O)OP(=O)(O)OC[C@H]3O[C@@H](n4cnc5c(N)ncnc54)[C@H](O)[C@@H]3O)[C@@H](O)[C@H]2O)C=CC1. As to the kind of experiment: Csaky iodine oxidation product formation assay. Format: biochemical, Streptomyces sviceus. The note with it: 10 mM cadaverine, 50 μM FAD, pH 8.0, 25°C, Haldane fit.
Source text: as §1

Series [6] has the same test system. As to the kind of experiment: purified protein. The note with it: 10 mM cadaverine, 50 μM FAD, 25°C, Haldane fit. Format: biochemical, Streptomyces sviceus.

Regarding `Cc1cc2nc3c(=O)[nH]c(=O)nc-3n(C[C@H](O)[C@H](O)[C@H](O)COP(=O)(O)OP(=O)(O)OC[C@H]3O[C@@H](n4cnc5c(N)ncnc54)[C@H](O)[C@@H]3O)c2cc1C` [FAD], the “X-ray crystal structure, 2.86 Å” value in series [1] is “FAD molecule is bound in an elongated conformation with the fully planar isoalloxazine ring”.

For `NC(=O)C1=CN([C@@H]2O[C@H](COP(=O)(O)OP(=O)(O)OC[C@H]3O[C@@H](n4cnc5c(N)ncnc54)[C@H](O)[C@@H]3O)[C@@H](O)[C@H]2O)C=CC1` [NADH], the “KI” value in series [2] (10 mM cadaverine) is 1000 ± 400 µM.

With `NC(=O)C1=CN([C@@H]2O[C@H](COP(=O)(O)OP(=O)(O)OC[C@H]3O[C@@H](n4cnc5c(N)ncnc54)[C@H](OP(=O)(O)O)[C@@H]3O)[C@@H](O)[C@H]2O)C=CC1` [NADPH], in series [2] (10 mM cadaverine), the “KI” value came out at 1100 ± 600 µM.

As for `NC(=O)c1ccc[n+]([C@@H]2O[C@H](COP(=O)(O)OP(=O)(O)OC[C@H]3O[C@@H](n4cnc5c(N)ncnc54)[C@H](OP(=O)(O)O)[C@@H]3O)[C@@H](O)[C@H]2O)c1` [NADP^+], in series [3], the “X-ray crystal structure, 2.37 Å” value is given as “the NADP^+ cofactor is held in the active site pocket in an elongated manner”.

In the case of `NCCCCCN` [cadaverine], the results for the “KI” value in series [2] (0.7 mM NADPH (Fig 3 legend says NADH)) and in series [4] were 27000 ± 22000 µM and 2200 ± 1800 µM, respectively.

As usually defined, the Km is the concentration of substrate that gives half-maximal velocity. What is called kcat is the maximal rate divided by the concentration of active sites. Usually kcat/Km stands for the second-order rate constant that governs catalysis at low substrate concentration. As to “SsDesB (without N-terminal hexahistidine tag) (Streptomyces sviceus ATCC 29083)”, in series [5], the Km turned out to be 130 ± 49 µM, the kcat turned out to be 0.094 ± 0.018 s⁻¹ and the kcat/Km is 710 ± 260 M⁻¹ s⁻¹.

As for “SsDesB with N-terminal hexahistidine tag (Streptomyces sviceus ATCC 29083)”, in series [6], the Km came to 120 ± 36 µM, the kcat turned out to be 0.38 ± 0.09 s⁻¹ and the kcat/Km is 3300 ± 1300 M⁻¹ s⁻¹.
